Data from patent US11753445B2, “Therapeutic peptides” (COHBAR, INC., priority 2016, dated 2023).
Ends that are not written are not given here.

Experiments:
[1] = tested on: 3T3-L1 Adipocytes; test: Free fatty acid levels in cultured mouse 3T3-L1 adipocytes, isoproterenol stimulated (Example 17); format: cell-based; settings: Peptide Concentration 25 μM; isoproterenol 1 nM
Description: Mouse 3T3-L1 cells were seeded at a density between 1,000-20,000 cells per well on 96-well, 48-well, or 24-well plates in Pre-adipocyte Medium (Zen-Bio, Durham, N.C.) and grown to confluence at 37° C. in a humidified atmosphere of 5% CO2/95% air. Two days after confluence, cells were placed in Adipocyte Differentiation Medium (Zen-Bio, Durham, N.C.) and cultured for three additional days at 37° C. in a humidified atmosphere of 5% CO2/95% air. The culture media was then replaced with Adipocyte Maintenance Medium (Zen-Bio) and the cells were maintained for an additional 9-14 days at 37° C. in a humidified atmosphere of 5% CO2/95% air with partial medium replacement every other day. Following 12-17 days of differentiation, test peptides were added at a final concentration of 25-50 μM and incubated for 18-20 hours in Adipocyte Maintenance Medium at 37° C. in a humidified atmosphere of 5% CO2/95%. After the media incubation, media was removed and exchanged with Assay Buffer (Zen-Bio) containing isoproterenol (1 nM) (added to all samples except untreated controls) and the test peptides. Cells were incubated for a further 3 hours at 37° C. in a humidified atmosphere of 5% CO2/95%. Free fatty acid concentrations in the media were determined using a Free Fatty Acid Assay Kit (Zen-Bio) according to the manufacturer's instructions using a plate reader (540 nm).
Absorbance values were corrected for untreated background and expressed relative to isoproterenol treated cells. Treatment with isoproterenol (1 nM) alone was used as the free fatty acid level stimulatory control. The relative standard deviation of the isoproterenol control was <10%. […] Free fatty acid levels for insulin (100 nM) treatment were <5% of the isoproterenol control value.

[2] = tested on: Diet Induced Obese (DIO) mice; test: Body weight and fat mass in Diet Induced Obese mice, 10 days (Example 20); format: in vivo, Male C57BL/6 mice; settings: male DIO mice, N = 8, Mean (SEM)
Description: Male C57BL/6 mice were maintained on a high fat diet for 18 weeks to develop diet induced obesity. Animals were randomized to treatment groups based on blood glucose levels and body weight. The peptides of the invention were administered to two groups of male DIG mice once or twice daily by intraperitoneal or subcutaneous injection at a doses of 5 to 15 mg/kg/dose for 10 days (N=8 animals per treatment group). An additional group of male DIG mice (n=8) received vehicle (water or saline) alone. Body weight, blood glucose levels and food intake were monitored. Body mass distribution (fat vs lean) was determined by quantitative whole body NMR prior to dosing and at the end of dosing. Administration of the peptides of the invention produced body weight loss and/or decrease in fat mass from baseline values (Table 18).

[3] = tested on: 3T3-L1 Adipocytes; test: Free fatty acid levels in cultured mouse 3T3-L1 adipocytes, isoproterenol stimulated (Example 2); format: cell-based; settings: test peptides 25 μM; isoproterenol 1 nM
How it was run: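 Release of free fatty acids, read at 540 nm, was stimulated with 1 nM isoproterenol for 3 h in mouse 3T3-L1 adipocytes (12–17 days of differentiation). Cells were pre-exposed to 25 μM peptide for 18–20 h plus 1 h, with peptide kept in during stimulation. Values are background-subtracted and normalised to isoproterenol alone.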

[4] = tested on: 3T3-L1 Adipocytes; test: Free fatty acid levels in cultured mouse 3T3-L1 adipocytes, forskolin stimulated (Example 3); format: cell-based; settings: test peptides 25 μM; forskolin 1 μM
Description: Mouse 3T3-L1 cells were seeded at 1,000-20,000 cells per well on 96-well, 48-well, or 24-well plates in Pre-adipocyte Medium (Zen-Bio, Durham, N.C.) and grown to confluence at 37° C. in a humidified atmosphere of 5% CO2/95% air. Two days after confluence, cells were placed in Adipocyte Differentiation Medium (Zen-Bio, Durham, N.C.) and cultured for three additional days at 37° C. in a humidified atmosphere of 5% CO2/95% air. The culture media was then replaced with Adipocyte Maintenance Medium (Zen-Bio) and the cells were maintained for an additional 9-14 days at 37° C. in a humidified atmosphere of 5% CO2/95% air with partial medium replacement every other day. Following 12-17 days of differentiation, test peptides were added at a final concentration of 25 μM and incubated for 18-20 hours in Adipocyte Maintenance Medium at 37° C. in a humidified atmosphere of 5% CO2/95%. After 18-20 hours, the media was exchanged with fresh Adipocyte Maintenance Medium containing test peptides and incubated for 1 h at 37° C. in a humidified atmosphere of 5% CO2/95%. After 1 h media was exchanged with Assay Buffer (Zen-Bio) containing forskolin (1 μM) (added to all samples except untreated controls) and test peptides. Cells were incubated for a further 3 hours at 37° C. in a humidified atmosphere of 5% CO2/95%. Free fatty acid concentrations in the media were determined using a Free Fatty Acid Assay Kit (Zen-Bio) according to the manufacturer's instructions using a plate reader (540 nm). Absorbance values were corrected for untreated background and expressed relative to forskolin treated cells. Treatment with forskolin (1 μM) alone was used as the free fatty acid level stimulatory control. The relative standard deviation of the forskolin control was <10%. […] Free fatty acid levels for insulin (100 nM) treatment were <9% of the forskolin control value.

[5] = tested on: Human Primary Adipocytes; test: Free fatty acid levels in cultured human primary adipocytes, isoproterenol stimulated (Example 4); format: cell-based; settings: test peptides 25 μM; isoproterenol 1 nM
Description: Human primary adipocytes were seeded at 5,000-100,000 cells per well on 96-well, 48-well, or 24-well plates in Pre-adipocyte Medium (Zen-Bio, Durham, N.C.) and grown to confluence at 37° C. in a humidified atmosphere of 5% CO2/95% air. Two days after confluence, cells were placed in Adipocyte Differentiation Medium (Zen-Bio, Durham, N.C.) and cultured for three additional days at 37° C. in a humidified atmosphere of 5% CO2/95% air. The culture media was then replaced with Adipocyte Maintenance Medium (Zen-Bio) and the cells were maintained for an additional 11-21 days at 37° C. in a humidified atmosphere of 5% CO2/95% air with partial medium replacement every other day. Following 14-24 days of differentiation, test peptides were added at a final concentration of 25 μM and incubated for 18-20 hours in Adipocyte Maintenance Medium at 37° C. in a humidified atmosphere of 5% CO2/95%. After 18-20 hours, the media was exchanged with fresh Adipocyte Maintenance Medium containing test peptides and incubated for 1 h at 37° C. in a humidified atmosphere of 5% CO2/95%. After 1 h media was exchanged with Assay Buffer (Zen-Bio) containing isoproterenol (1 nM) (added to all samples except untreated controls) and test peptides. Cells were incubated for a further 3 hours at 37° C. in a humidified atmosphere of 5% CO2/95%. Free fatty acid concentrations in the media were determined using a Free Fatty Acid Assay Kit (Zen-Bio) according to the manufacturer's instructions using a plate reader (540 nm). Absorbance values were corrected for untreated background and expressed relative to isoproterenol treated cells. Treatment with isoproterenol (1 nM) alone was used as the free fatty acid level stimulatory control. The relative standard deviation of the isoproterenol control was <14%. […] Free fatty acid levels for insulin (100 nM) treatment were <5% of the isoproterenol control value.

[6] = tested on: Human Primary Adipocytes; test: Free fatty acid levels in cultured human primary adipocytes, forskolin stimulated (Example 5); format: cell-based; settings: test peptides 25 μM; forskolin 1 μM
How it was run: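 Differentiated human primary adipocytes (14–24 days) were exposed to peptides at 25 μM for 18–20 h and 1 h, then stimulated with 1 μM forskolin plus peptide for 3 h at 37 °C. Medium free fatty acids were measured colorimetrically (540 nm), background-corrected and expressed relative to forskolin-only cells.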

[7] = Stability in mouse plasma, peptides 100 uM (Example 14); format: in vitro ADME; settings: mouse plasma 37° C., peptide 100 uM; for remaining at 0.25 h, 100 uM / remaining at 0.5 h, 100 uM / remaining at 1 h, 100 uM / remaining at 2 h, 100 uM / remaining at 3 h, 100 uM: pooled mouse plasma; for remaining at 0.25 h, 100 uM: 15 min, read-out: % Remaining at Each Time Point: 15 min; for remaining at 0.5 h, 100 uM: 30 min, read-out: % Remaining at Each Time Point: 30 min; for remaining at 1 h, 100 uM: 60 min, read-out: % Remaining at Each Time Point: 60 min; for remaining at 2 h, 100 uM: 120 min, read-out: % Remaining at Each Time Point: 120 min; for remaining at 3 h, 100 uM: 180 min, read-out: % Remaining at Each Time Point: 180 min
Description: Peptides (100 uM) were incubated in pooled mouse plasma at 37° C. and samples were removed and immediately analyzed for the concentration of intact peptide by LC/MS/MS over the course of 3 hours. The percent of peptide remaining in plasma at each time point was calculated relative to the initial peak area (Table 12).

[8] = Stability in mouse plasma, peptides 10 uM (Example 15); format: in vitro ADME; settings: mouse plasma 37° C., peptide 10 uM
Description: Peptides (10 uM) were incubated in pooled mouse plasma at 37° C. and samples were removed and immediately analyzed for the concentration of intact peptide by LC/MS/MS over the course of 3 hours. The percent of peptide remaining in plasma at each time point was calculated relative to the initial peak area (Table 13).

[9] = 10 days once daily administration 15 mg/kg
[10] = 10 days twice daily intraperitoneal 15 mg/kg

Substance	Free Fatty Acid Levels in 3T3-L1 Adipocytes Expressed as a Percent of Isoproterenol Control: Percent of Control Value [1]	Decrease from Baseline in Body Weight (%) [2, 10]	Decrease from Baseline in Fat Mass (g) [2, 10]	Free Fatty Acid Levels in 3T3-L1 Adipocytes Expressed as a Percent of Isoproterenol Control: Percent of Control Value [3]	Free Fatty Acid Levels in 3T3-L1 Adipocytes Expressed as a Percent of Forskolin Control: Percent of Control Value [4]	Free Fatty Acid Levels in Human Primary Adipocytes Expressed as a Percent of Isoproterenol Control: Percent of Control Value [5]	Free Fatty Acid Levels in Human Primary Adipocytes Expressed as a Percent of Forskolin Control: Percent of Control Value [6]	% Remaining at Each Time Point: 0 min [7]	remaining at 0.25 h, 100 uM [7]	remaining at 0.5 h, 100 uM [7]	remaining at 1 h, 100 uM [7]	remaining at 2 h, 100 uM [7]	remaining at 3 h, 100 uM [7]	other results
357 (PEG600-KRWQEMNYIFYPR) [compound 357]	30.8%	−3.4 (1.0) %	−1.0 (0.4) g	–	–	–	–	–	–	–	–	–	–	Decrease from Baseline in Body Weight (%) [2, 9]: −1.2 (0.6) %; Decrease from Baseline in Fat Mass (g) [2, 9]: −0.2 (0.2) g
H-EMNYIFYPR-OH [compound 364]	87.2%	−6.6 (1.6) %	−3.7 (1.2) g	–	–	–	–	–	–	–	–	–	–	–
H-MRWQEMGYIFYPRK-OH [compound 46]	–	–	–	43.1%	66.8%	71.6%	73.9%	100%	28.1%	26.4%	31.4%	12.4%	12.6%	–
H-MRWQEMQYIFYPR-OH [compound 209]	–	–	–	30.1%	33.3%	66.8%	90.1%	100%	47.5%	38.9%	38%	36.3%	38.3%	–
H-NYIFYPR-OH [compound 361]	76.3%	−5.8 (0.8) %	−3.8 (0.5) g	–	–	–	–	–	–	–	–	–	–	–
H-RWQEMNYIFYP-OH [compound 283]	–	−5.5 (0.4) %	−3.0 (0.2) g	90.8%	–	–	–	–	–	–	–	–	–	% Remaining at Each Time Point: 0 min ([8]; 0 min): 100%; remaining at 0.25 h, 10 uM ([8]; pooled mouse plasma, 15 min, read-out: % Remaining at Each Time Point: 15 min): 54.3%; remaining at 0.5 h, 10 uM ([8]; pooled mouse plasma, 30 min, read-out: % Remaining at Each Time Point: 30 min): 25.8%; remaining at 1 h, 10 uM ([8]; pooled mouse plasma, 60 min, read-out: % Remaining at Each Time Point: 60 min): 2.05%; remaining at 2 h, 10 uM ([8]; pooled mouse plasma, 120 min, read-out: % Remaining at Each Time Point: 120 min): 0.35%; remaining at 3 h, 10 uM ([8]; pooled mouse plasma, 180 min, read-out: % Remaining at Each Time Point: 180 min): 0.14%
H-WQEMGYIFYPRKLR-OH [compound 39]	–	–	–	84.3%	114%	22.2%	80.8%	100%	39.5%	38.8%	54.9%	24%	16.3%	–
